From ChEMBL document CHEMBL5316325, “Design and Synthesis of 3-Hydroxy-pyridin-4(1H)-ones-Ciprofloxacin Conjugates as Dual Antibacterial and Antibiofilm Agents against Pseudomonas aeruginosa” (J Med Chem, 2023)
Values after ≈ are worked out from the molar mass of the structure shown. Active and inactive are the calls of the source. The rule behind the calls is not given here.

Tests used:
Pseudomonas aeruginosa [1] = assay: Antibiofilm activity against Pseudomonas aeruginosa PAO1 in ABTGC medium assessed as biofilm biomass at 1/4 times MIC incubated for 24 hrs by crystal violet staining based assay relative to control; assay type: functional
Pseudomonas aeruginosa [2] = assay: Antibacterial activity against Pseudomonas aeruginosa ATCC 27853 in MHB medium assessed as bacterial growth inhibition by CLSI based broth microdilution method; assay type: functional
Pseudomonas aeruginosa [3] = assay: Antibacterial activity against Pseudomonas aeruginosa PAO1 in MHB medium assessed as bacterial growth inhibition by CLSI based broth microdilution method; assay type: functional
Pseudomonas aeruginosa [4] = assay: Antibacterial activity against Pseudomonas aeruginosa FB in MHB medium assessed as bacterial growth inhibition by CLSI based broth microdilution method; assay type: functional
Pseudomonas aeruginosa [5] = assay: Antibacterial activity against Pseudomonas aeruginosa 1167 in MHB medium assessed as bacterial growth inhibition by CLSI based broth microdilution method; assay type: functional
Pseudomonas aeruginosa [6] = assay: Antibacterial activity against Pseudomonas aeruginosa 1121 in MHB medium assessed as bacterial growth inhibition by CLSI based broth microdilution method; assay type: functional
Pseudomonas aeruginosa [7] = assay: Antibacterial activity against Pseudomonas aeruginosa 1129 in MHB medium assessed as bacterial growth inhibition by CLSI based broth microdilution method; assay type: functional
Escherichia coli = assay: Antibacterial activity against Escherichia coli ATCC 25922 in MHB medium assessed as bacterial growth inhibition by CLSI based broth microdilution method; assay type: functional
Klebsiella pneumoniae = assay: Antibacterial activity against Klebsiella pneumoniae ATCC 700603 in MHB medium assessed as bacterial growth inhibition by CLSI based broth microdilution method; assay type: functional
Staphylococcus aureus [8] = assay: Antibacterial activity against Staphylococcus aureus ATCC 25923 in MHB medium assessed as bacterial growth inhibition by CLSI based broth microdilution method; assay type: functional
Staphylococcus aureus [9] = assay: Antibacterial activity against methicillin-resistant Staphylococcus aureus ATCC 515992 in MHB medium assessed as bacterial growth inhibition by CLSI based broth microdilution method; assay type: functional
Pseudomonas aeruginosa [10] = assay: Antibacterial activity against Pseudomonas aeruginosa PAO1 in ABTGC medium assessed as bacterial growth inhibition; assay type: functional
Pseudomonas aeruginosa [11] = assay: Antibiofilm activity against Pseudomonas aeruginosa PAO1 in ABTGC medium assessed as biofilm biomass at 1/2 times MIC incubated for 24 hrs by crystal violet staining based assay relative to control; assay type: functional
Pseudomonas aeruginosa [12] = assay: Antibiofilm activity against Pseudomonas aeruginosa PAO1 in ABTGC medium assessed as biofilm biomass at MIC incubated for 24 hrs by crystal violet staining based assay relative to control; assay type: functional
Pseudomonas aeruginosa [13] = assay: Antibacterial activity against Pseudomonas aeruginosa PAO1 assessed as log reduction in CFU/ml at 8 times MIC measured after 2 hrs by time killing analysis; assay type: functional
Pseudomonas aeruginosa [14] = assay: Antibacterial activity against Pseudomonas aeruginosa PAO1 assessed as reduction in bacterial CFU count at 8 times MIC measured after 4 hrs by time killing analysis; assay type: functional, organism-based
Pseudomonas aeruginosa [15] = assay: Antibacterial activity against Pseudomonas aeruginosa PAO1 assessed as reduction in bacterial viability at MIC measured after 8 hrs by time killing analysis; assay type: functional, organism-based
Pseudomonas aeruginosa [16] = assay: Antibacterial activity against Pseudomonas aeruginosa PAO1 assessed as reduction in bacterial viability at 8 times MIC measured after 4 hrs by time killing analysis; assay type: functional, organism-based
Pseudomonas aeruginosa [17] = assay: Antibiofilm activity against Pseudomonas aeruginosa PAO1 assessed as biofilm eradication at 4 times MIC incubated for 24 hrs by crystal violet staining based assay relative to control; assay type: functional
Pseudomonas aeruginosa [18] = assay: Antibiofilm activity against Pseudomonas aeruginosa PAO1 assessed as biofilm eradication at high concentration incubated for 36 hrs by crystal violet staining based assay; assay type: functional, organism-based
Pseudomonas aeruginosa [19] = assay: Antibiofilm activity against Pseudomonas aeruginosa PAO1 in ABTGC medium assessed as biofilm biomass at MIC incubated for 24 hrs in presence of 10 uM Fe by crystal violet staining based assay relative to control; assay type: functional
Pseudomonas aeruginosa [20] = assay: Antibiofilm activity against Pseudomonas aeruginosa PAO1 in ABTGC medium assessed as biofilm biomass at 1/2 times MIC incubated for 24 hrs in presence of 10 uM Fe by crystal violet staining based assay relative to control; assay type: functional
Pseudomonas aeruginosa [21] = assay: Antibiofilm activity against Pseudomonas aeruginosa PAO1 in ABTGC medium assessed as biofilm biomass at 1/4 times MIC incubated for 24 hrs in presence of 10 uM Fe by crystal violet staining based assay relative to control; assay type: functional
Pseudomonas aeruginosa [22] = assay: Antibiofilm activity against Pseudomonas aeruginosa PAO1 in ABTGC medium assessed as biofilm biomass at MIC incubated for 24 hrs in presence of 40 uM Fe by crystal violet staining based assay relative to control; assay type: functional
Pseudomonas aeruginosa [23] = assay: Antibiofilm activity against Pseudomonas aeruginosa PAO1 in ABTGC medium assessed as biofilm biomass at 1/2 times MIC incubated for 24 hrs in presence of 40 uM Fe by crystal violet staining based assay relative to control; assay type: functional
Pseudomonas aeruginosa [24] = assay: Antibiofilm activity against Pseudomonas aeruginosa PAO1 in ABTGC medium assessed as biofilm biomass at 1/4 times MIC incubated for 24 hrs in presence of 40 uM Fe by crystal violet staining based assay relative to control; assay type: functional
Pseudomonas aeruginosa [25] = assay: Antibiofilm activity against Pseudomonas aeruginosa PAO1 assessed as decrease in rhamnolipid level by absorbance based assay; assay type: functional, organism-based; details: dose 1.72-6.88 µM
Pseudomonas aeruginosa [26] = assay: Antibiofilm activity against Pseudomonas aeruginosa PAO1 assessed as decrease in pyocyanin level by absorbance based assay; assay type: functional, organism-based; details: dose 1.72-6.88 µM
Pseudomonas aeruginosa [27] = assay: Antibiofilm activity against Pseudomonas aeruginosa PAO1 assessed as decrease in rhamnolipid level at 3.44 uM by absorbance based assay relative to control; assay type: functional; design: scale not given: the % may be the effect or the level left
Pseudomonas aeruginosa [28] = assay: Antibiofilm activity against Pseudomonas aeruginosa PAO1 assessed as decrease in pyocyanin level at 3.44 uM by absorbance based assay relative to control; assay type: functional; design: scale not given: the % may be the effect or the level left
Pseudomonas aeruginosa [29] = assay: Antibiofilm activity against Pseudomonas aeruginosa PAO1 assessed as reduction in swimming motility at 3.44 uM incubated for 16 hrs relative to control; assay type: functional; design: scale not given: the % may be the effect or the level left
Pseudomonas aeruginosa [30] = assay: Antibiofilm activity against Pseudomonas aeruginosa PAO1 assessed as reduction in swarming motility at 3.44 uM incubated for 16 hrs relative to control; assay type: functional; design: scale not given: the % may be the effect or the level left
Pseudomonas aeruginosa [31] = assay: Antibiofilm activity against Pseudomonas aeruginosa PAO1 assessed as reduction in twitching motility at 3.44 uM incubated for 16 hrs relative to control; assay type: functional; design: scale not given: the % may be the effect or the level left
HEK293 = assay: Cytotoxicity against HEK293 cells upto 100 uM incubated for 48 hrs by MTT assay; assay type: toxicity, cell-based; details: human, hek293, 48 h
A549 = assay: Cytotoxicity against human A549 cells upto 100 uM incubated for 16 hrs by MTT assay; assay type: toxicity, cell-based; details: a549, 16 h
[32] = Toxicity in Caenorhabditis elegans assessed as survival rate at 50 to 100 uM measured after 48 hrs by bright field microscopy; details: dose 50-100 µM
Pseudomonas aeruginosa [33] = assay: Antibacterial activity against Pseudomonas aeruginosa PAO1 assessed as decrease in bacterial load at MIC measured for 12 hrs by absorbance based assay; assay type: functional, organism-based
[34] = Toxicity in Caenorhabditis elegans infected with Pseudomonas aeruginosa PAO1 assessed as survival at MIC measured after 48 hrs by bright field microscopy relative to control; details: read-out: Activity

`Cc1cc(=O)c(O)c(CNC(=O)CCC(=O)N2CCN(c3cc4c(cc3F)c(=O)c(C(=O)O)cn4C3CC3)CC2)n1C` showed an Activity (Pseudomonas aeruginosa [1]) of 21.7%, an MIC (Pseudomonas aeruginosa [2]) of 0.86 µM (≈ 0.5 µg/mL) and an MIC (Pseudomonas aeruginosa [3]) of 0.43 µM (≈ 0.25 µg/mL). It also gave an MIC (Pseudomonas aeruginosa [4]) of 1.72 µM (≈ 1 µg/mL), an MIC (Pseudomonas aeruginosa [5]) of 0.86 µM (≈ 0.5 µg/mL) and an MIC (Pseudomonas aeruginosa [6]) of 1.72 µM (≈ 1 µg/mL). It also gave an MIC (Pseudomonas aeruginosa [7]) of 3.44 µM (≈ 2 µg/mL), an MIC (Escherichia coli) of 0.03 µM (≈ 0.0174 µg/mL) and an MIC (Klebsiella pneumoniae) of 1.72 µM (≈ 1 µg/mL). For the same compound, the MIC (Staphylococcus aureus [8]) was 3.44 µM (≈ 2 µg/mL), the MIC (Staphylococcus aureus [9]) was over 200 µM and the MIC (Pseudomonas aeruginosa [10]) was 6.88 µM (≈ 4 µg/mL). It also gave an Activity (Pseudomonas aeruginosa [11]) of 111.5%, an Activity (Pseudomonas aeruginosa [12]) of 39% and an FC (Pseudomonas aeruginosa [13]) of 2. The Activity (Pseudomonas aeruginosa [14]) was “Active”, the Activity (Pseudomonas aeruginosa [15]) was “Active” and the Activity (Pseudomonas aeruginosa [16]) was “Active”. The Activity (Pseudomonas aeruginosa [17]) was 74.2%, the Activity (Pseudomonas aeruginosa [18]) was “Active” and the Activity (Pseudomonas aeruginosa [19]) was 39%. For the same compound, the Activity (Pseudomonas aeruginosa [20]) was 111.5%, the Activity (Pseudomonas aeruginosa [21]) was 21.7% and the Activity (Pseudomonas aeruginosa [22]) was 211%. For the same compound, the Activity (Pseudomonas aeruginosa [23]) was 223.4%, the Activity (Pseudomonas aeruginosa [24]) was 205.2% and the Activity (Pseudomonas aeruginosa [25]) was “Dose-Dependent Effect”. The Activity (Pseudomonas aeruginosa [26]) was “Dose-Dependent Effect”, the Activity (Pseudomonas aeruginosa [27]) was 20% and the Activity (Pseudomonas aeruginosa [28]) was 40%. The Activity (Pseudomonas aeruginosa [29]) was 63%, the Activity (Pseudomonas aeruginosa [30]) was 30% and the Activity (Pseudomonas aeruginosa [31]) was 63%. For the same compound, the Activity (HEK293) was “Non-Toxic”, the Activity (A549) was “Non-Toxic” and the Activity [32] was “Non-Toxic”. The Activity (Pseudomonas aeruginosa [33]) was “Active” and the survival at 48 h [34] was 50%.
